Reference: patent US7514529B2, “Peptide mimotopes of lipooligosaccharide from nontypeable Haemophilus influenzae as vaccines” (The United States of America as represented by the …, priority 2003, dated 2009)

System: target rabbit anti-LOS antibody
Assay: Peptide ELISA (NucleoLink strips): synthetic peptides binding the target anti-LOS antibody
Settings: for Binding reactivity (OD405): 5 μg peptide coupled to strip, 0.4 μg/well target antibody, average of duplicates; for Binding reactivity of synthetic peptides to target anti-LOS antibody (in words): peptide-coated ELISA
Experimental: Four peptides were synthesized with a spacer (GGGS) at each C-terminus (Genemed Synthesis, Inc., San Francisco, Calif.). Binding reactivity of the synthetic peptides to the target anti-LOS antibody was tested with a peptide ELISA using Nunc NucleoLink™ Strips (Fisher Scientific, Pittsburgh, Pa.). Following the instructions of the product with modifications, the strips were coated covalently with its amino groups to the C-terminal carboxyl groups of the synthetic peptides by a coupling reagent, [1-Ethyl-3-(3-dimethylaminopropyl) carbodiimide HCl] (EDC, Pierce). Briefly, peptides and 0.1 M 1-methyl-imidazole (Meim) (Sigma-Aldrich) at pH 7 were pre-cooled on ice, and a 100 μl of individual peptide solution with 5 μg of peptide in 10 mM MeIm was prepared in a well of strips on ice. This peptide solution (75 μl) was mixed with 25 μl of freshly prepared 0.2 M EDC in 10 mM MeIm in another well of the strips. The strips were sealed and incubated at 50° C. for 5 h. After removing the reaction mixture, the strips were soaked with washing buffer (freshly prepared 0.25% SDS in 0.4 N NaOH and warmed at 50° C.) for 5 min and emptied. This step was performed for three times, followed by another three washings without the 5-min soaking. After removing the washing buffer, the strips was washed thoroughly with deionized water. The following steps were the same as described in the LOS ELISA (Gu et al. 1996 Infect Immun 64:4047). After blocking with 1% BSA in PBS, the target anti-LOS antibody was added in the amount of 0.4 μg/well followed by a goat anti-rabbit IgG alkaline phosphatase conjugate. The binding reactivity of the synthetic peptides to the target anti-LOS antibody was evaluated by OD405 values at 30 min after adding a substrate.

Sequence | Binding reactivity (OD405) | Binding reactivity of synthetic peptides to target anti-LOS antibody (in words)
NMMKYISPPIFL [Peptide 3] | 1.11 OD405 | higher binding reactivity
NMMNYIMDPRTH [Peptide 2] | 2.52 OD405 | higher binding reactivity
NMMRFTELSTPS [Peptide 4] | 0.99 OD405 | higher binding reactivity
NMMRFTSQPPNN [Peptide 1] | 0.40 OD405 | did not show good antigenic mimic of the LOS
TLAHHKKPWILR [Peptide 5, control peptide from an unrelated clone, reference compound] | 0.33 OD405 | –
